# Assay results taken from ChEMBL document CHEMBL3351596, “Design, synthesis and anti-leishmanial activity of novel symmetrical bispyridinium cyclophanes” (Eur J Med Chem, 2015).
# The source made the active and inactive calls. The rule behind the calls is not given here.
# How the values were obtained:
# [1] = Selectivity index, ratio of EC50 for human THP1 cells to EC50 for Leishmania major MHOM/JL/80/ Friedlin amastigotes infected in human THP1 cells; format: toxicity, cell-based, THP-1; conditions: read-out: Ratio EC50
# Leishmania major [2] = assay: Anti-leishmanial activity against Leishmania major MHOM/JL/80/ Friedlin promastigotes incubated for 72 hrs at 28 degC; format: functional, organism-based
# THP-1 = assay: Cytotoxicity against human THP1 cells after 48 hrs by MTT assay; format: cell-based; conditions: THP-1, 48 h
# [3] = Selectivity index, ratio of EC50 for human THP1 cells to EC50 for Leishmania donovani MHOM/IND/80/Dd8 amastigotes infected in human THP1 cells; format: toxicity, cell-based, THP-1; conditions: read-out: Ratio EC50
# Leishmania major [4] = assay: Anti-leishmanial activity against Leishmania major MHOM/JL/80/ Friedlin amastigotes infected in human THP1 cells incubated for 72 hrs at 37 degC by DAPI staining based assay; format: functional, organism-based; conditions: THP-1, 72 h
# Leishmania donovani [5] = assay: Anti-leishmanial activity against Leishmania donovani MHOM/IND/80/Dd8 amastigotes infected in human THP1 cells incubated for 72 hrs at 37 degC by DAPI staining based assay; format: functional, organism-based; conditions: MHOM/IND/80/Dd8, THP-1, 72 h
# Leishmania donovani [6] = assay: Anti-leishmanial activity against Leishmania donovani MHOM/IND/80/Dd8 promastigotes incubated for 72 hrs at 28 degC; format: functional, organism-based; conditions: MHOM/IND/80/Dd8, 72 h
# Leishmania major [7] = assay: Reduction in ATP level in Leishmania major MHOM/JL/80/ Friedlin promastigotes at 30 uM after 3 hrs by cell-titer-Glo luminescence assay; format: functional
# Leishmania donovani [8] = assay: Reduction in ATP level in Leishmania donovani MHOM/IND/80/Dd8 promastigotes at 30 uM after 3 hrs by cell-titer-Glo luminescence assay; format: functional, organism-based
# Leishmania donovani [9] = assay: Anti-leishmanial activity against Leishmania donovani MHOM/IND/80/Dd8 promastigotes incubated for 72 hrs at 28 degC in presence of 10 mM choline; format: functional, organism-based; conditions: MHOM/IND/80/Dd8, 72 h
# Leishmania donovani [10] = assay: Anti-leishmanial activity against Leishmania donovani MHOM/IND/80/Dd8 promastigotes expressing pXG empty vector incubated for 72 hrs at 28 degC; format: functional, organism-based; conditions: MHOM/IND/80/Dd8, 72 h
# Leishmania major [11] = assay: Reduction in ATP level in Leishmania major MHOM/JL/80/ Friedlin promastigotes at 0.2 uM after 1 hr by cell-titer-Glo luminescence assay; format: functional
# Leishmania donovani [12] = assay: Anti-leishmanial activity against Leishmania donovani MHOM/IND/80/Dd8 promastigotes incubated for 72 hrs at 28 degC in presence of 10 mM ethanolamine; format: functional, organism-based; conditions: MHOM/IND/80/Dd8, 72 h
# [13] = Selectivity index, ratio of EC50 for Leishmania donovani MHOM/IND/80/Dd8 promastigotes to EC50 for Leishmania major MHOM/JL/80/ Friedlin promastigotes; format: functional
# Leishmania donovani [14] = assay: Induction of plasma membrane depolarization in Leishmania donovani MHOM/IND/80/Dd8 promastigotes at 30 uM after 3 hrs by […] dye based fluorescence assay; format: functional, organism-based
# Leishmania donovani [15] = assay: Effect on mitochondrial membrane potential in Leishmania donovani MHOM/IND/80/Dd8 promastigotes at 30 uM after 3 hrs by […] dye based fluorescence assay; format: functional, organism-based
# Leishmania major [16] = assay: Effect on mitochondrial membrane potential in Leishmania major MHOM/JL/80/ Friedlin promastigotes at 0.2 uM after 1 hr by […] dye based fluorescence assay; format: functional, organism-based
# Leishmania donovani [17] = assay: Anti-leishmanial activity against Leishmania donovani MHOM/IND/80/Dd8 amastigotes expressing pXG-EK infected in human THP1 cells incubated for 72 hrs at 37 degC; format: functional, organism-based; conditions: MHOM/IND/80/Dd8, THP-1, 72 h
# Leishmania major [18] = assay: Induction of plasma membrane depolarization in Leishmania major MHOM/JL/80/ Friedlin promastigotes at 0.2 uM after 1 hr by […] dye based fluorescence assay; format: functional, organism-based
# Leishmania donovani [19] = assay: Anti-leishmanial activity against Leishmania donovani MHOM/IND/80/Dd8 amastigotes expressing pXG-CEK infected in human THP1 cells incubated for 72 hrs at 37 degC; format: functional, organism-based; conditions: MHOM/IND/80/Dd8, THP-1, 72 h
# Leishmania donovani [20] = assay: Anti-leishmanial activity against Leishmania donovani MHOM/IND/80/Dd8 promastigotes expressing pXG-CEK incubated for 72 hrs at 28 degC; format: functional, organism-based; conditions: MHOM/IND/80/Dd8, 72 h
# Leishmania donovani [21] = assay: Anti-leishmanial activity against Leishmania donovani MHOM/IND/80/Dd8 amastigotes expressing pXG empty vector infected in human THP1 cells incubated for 72 hrs at 37 degC; format: functional, organism-based; conditions: MHOM/IND/80/Dd8, THP-1, 72 h
# Leishmania major [22] = assay: Reduction in ATP level in Leishmania major MHOM/JL/80/ Friedlin promastigotes at 0.2 uM measured up to 3 hrs by cell-titer-Glo luminescence assay; format: functional, organism-based
# Leishmania donovani [23] = assay: Anti-leishmanial activity against Leishmania donovani MHOM/IND/80/Dd8 promastigotes expressing pXG-EK incubated for 72 hrs at 28 degC; format: functional, organism-based; conditions: MHOM/IND/80/Dd8, 72 h
EC50 (Leishmania major [2]) [µM],EC50 (Leishmania major [4]) [µM],EC50 (Leishmania donovani [5]) [µM],EC50 (Leishmania donovani [6]) [µM],Structure (SMILES),selectivity ratio [1],EC50 (THP-1) [µM],selectivity ratio [3],other results
26.5,17.2,63.7,76.9,c1cc2ccc1CNc1cc[n+](cc1)CCOCC[n+]1ccc(cc1)NC2,12.9,222,3.5,–
16.8,5.94,13.5,52,c1cc2cc(c1)CNc1cc[n+](cc1)CCCCC[n+]1ccc(cc1)NC2,32.3,192,14.2,–
0.32,0.24,0.28,0.21,C[C@@H]1[C@H](O)[C@@H](C)/C=C/C=C/C=C/C=C/C=C/C=C/C=C/[C@H](O[C@@H]2O[C@H](C)[C@@H](O)[C@H](N)[C@@H]2O)C[C@@H]2O[C@](O)(C[C@@H](O)C[C@@H](O)[C@H](O)CC[C@@H](O)C[C@@H](O)CC(=O)O[C@H]1C)C[C@H](O)[C@H]2C(=O)O [AMPHOTERICIN B],59.7,14.3,51.1,–
0.26,2.18,13,31.4,c1c[n+]2ccc1NCCCCCNc1cc[n+](cc1)CCOCC2,98.5,215,16.6,–
0.17,0.97,38.3,26.4,c1cc2ccc1CNc1cc[n+](cc1)CCCCC[n+]1ccc(cc1)NC2,170,165,4.3,–
16.6,10.6,0.88,6.6,CCCCCCCCCCCCCCCCOP(=O)([O-])OCC[N+](C)(C)C [MILTEFOSINE],2.5,26.9,30.5,–
5.97,8.67,8.92,33.8,c1cc2cc(c1)CNc1cc[n+](cc1)CCOCC[n+]1ccc(cc1)NC2,22.5,195,–,–
0.19,2.24,20.7,23.4,c1c[n+]2ccc1NCCOCCNc1cc[n+](cc1)CCOCC2,57.2,128,6.2,–
0.26,2.59,33.2,31.5,c1c[n+]2ccc1NCCOCCNc1cc[n+](cc1)CCCCC2,62.7,162,4.9,–
2.87,1.61,21.2,76.3,c1cc2cc(c1)C[n+]1ccc(cc1)NCCOCCNc1cc[n+](cc1)C2,121,194,9.2,–

Structure (SMILES),EC50 (Leishmania major [2]) [µM],EC50 (Leishmania major [4]) [µM],EC50 (Leishmania donovani [5]) [µM],EC50 (Leishmania donovani [6]) [µM],selectivity ratio [1],EC50 (THP-1) [µM],selectivity ratio [3],other results
c1c[n+]2ccc1NCCCCCNc1cc[n+](cc1)CCCCC2,0.07,1.26,7.62,10.6,122,154,20.2,inhibition at 30 µM (Leishmania major [7]): 95%; inhibition (Leishmania donovani [8]): inactive; EC50 (Leishmania donovani [9]): 11.5 µM; EC50 (Leishmania donovani [10]): 13.5 µM; inhibition at 0.2 µM (Leishmania major [11]): > 50%; EC50 (Leishmania donovani [12]): 12 µM; Ratio EC50 [13]: 100; Activity (Leishmania donovani [14]): inactive; Activity (Leishmania donovani [15]): inactive; Activity (Leishmania major [16]): inactive; EC50 (Leishmania donovani [17]): 10.5 µM; Activity (Leishmania major [18]): Active; EC50 (Leishmania donovani [19]): 12.7 µM; EC50 (Leishmania donovani [20]): 11.5 µM; EC50 (Leishmania donovani [21]): 8.84 µM; inhibition (Leishmania major [22]): Active; EC50 (Leishmania donovani [23]): 12 µM
